Common to all, as to test: relative viability (nuclei count vs DMSO), 5 days (fraction); higher = more cells survive
Compound in the test “Sunitinib + Navitoclax”: CCN(CC)CCNC(=O)c1c(C)[nH]c(/C=C2\C(=O)Nc3ccc(F)cc32)c1C [Sunitinib] + CC1(C)CCC(c2ccc(Cl)cc2)=C(CN2CCN(c3ccc(C(=O)NS(=O)(=O)c4ccc(N[C@H](CCN5CCOCC5)CSc5ccccc5)c(S(=O)(=O)C(F)(F)F)c4)cc3)CC2)C1 [Navitoclax] (partner 0.5 µM)
In outline: (§1)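 Lung cancer cell lines were pin-tool dosed in 1536-well plates on the day after seeding, with either a lone drug or a fixed anchor-drug dose plus five library-drug doses (not always all listed) in √10 steps. Nuclei were counted on 4× images after 5 days. Relative viability is the ratio of treated-well to vehicle-well nuclei counts, with each value a median of duplicate plates.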

Compound in the test “Sunitinib + Crizotinib”: CCN(CC)CCNC(=O)c1c(C)[nH]c(/C=C2\C(=O)Nc3ccc(F)cc32)c1C [Sunitinib] + C[C@@H](Oc1cc(-c2cnn(C3CCNCC3)c2)cnc1N)c1c(Cl)ccc(F)c1Cl [Crizotinib] (partner 1 µM)
In outline:
as §1

Compound in the test “Sunitinib + Dasatinib”: CCN(CC)CCNC(=O)c1c(C)[nH]c(/C=C2\C(=O)Nc3ccc(F)cc32)c1C [Sunitinib] + Cc1nc(Nc2ncc(C(=O)Nc3c(C)cccc3Cl)s2)cc(N2CCN(CCO)CC2)n1 [Dasatinib] (partner 0.075 µM)
Put shortly: as §1

Compound in the test “Sunitinib + Vorinostat”: CCN(CC)CCNC(=O)c1c(C)[nH]c(/C=C2\C(=O)Nc3ccc(F)cc32)c1C [Sunitinib] + O=C(CCCCCCC(=O)Nc1ccccc1)NO [Vorinostat] (partner 1 µM)
In outline: as §1

For the cell line NCI-H1666, the relative viability with Sunitinib + Navitoclax (first compound 0.02 µM) was determined as 1.03; in the test with Sunitinib + Navitoclax (first compound 0.06325 µM), 0.921; in the test with Sunitinib + Navitoclax (first compound 0.2 µM) it was 1.22; with Sunitinib + Navitoclax (first compound 0.6325 µM), 0.836; in the test with Sunitinib + Navitoclax (first compound 2 µM), 0.96; in the test with Sunitinib + Crizotinib (first compound 0.02 µM) it was 1.06. Also, the relative viability is 0.978 with Sunitinib + Crizotinib (first compound 0.06325 µM); 1.08 with Sunitinib + Crizotinib (first compound 0.2 µM); 1.19 with Sunitinib + Crizotinib (first compound 0.6325 µM); 1.07 with Sunitinib + Crizotinib (first compound 2 µM); 0.77 with Sunitinib + Dasatinib (first compound 0.02 µM); 0.948 with Sunitinib + Dasatinib (first compound 0.06325 µM). Also, the relative viability with Sunitinib + Dasatinib (first compound 0.2 µM) worked out at 0.936; with Sunitinib + Dasatinib (first compound 0.6325 µM), 0.862; in the test with Sunitinib + Dasatinib (first compound 2 µM), 0.942; in the test with Sunitinib + Vorinostat (first compound 0.02 µM) it was 1.12; with Sunitinib + Vorinostat (first compound 0.06325 µM), 1.06; with Sunitinib + Vorinostat (first compound 0.2 µM) it was 1.11. In addition, the relative viability with Sunitinib + Vorinostat (first compound 0.6325 µM) worked out at 0.996.
Turning to NCI-H1651, the relative viability in the test with Sunitinib + Navitoclax (first compound 0.02 µM) is 0.922; in the test with Sunitinib + Navitoclax (first compound 0.06325 µM), 1.09; with Sunitinib + Navitoclax (first compound 0.2 µM) it was 1.19; with Sunitinib + Navitoclax (first compound 0.6325 µM), 1.08; in the test with Sunitinib + Navitoclax (first compound 2 µM) it was 1.15; with Sunitinib + Crizotinib (first compound 0.02 µM), 0.866. For the same cell line, the relative viability with Sunitinib + Crizotinib (first compound 0.06325 µM) was determined as 0.843; in the test with Sunitinib + Crizotinib (first compound 0.2 µM) it was 0.89; with Sunitinib + Crizotinib (first compound 0.6325 µM), 0.921; with Sunitinib + Crizotinib (first compound 2 µM), 0.917; with Sunitinib + Dasatinib (first compound 0.02 µM) it was 0.389; with Sunitinib + Dasatinib (first compound 0.06325 µM), 0.506. The relative viability with Sunitinib + Dasatinib (first compound 0.2 µM) stood at 0.59; with Sunitinib + Dasatinib (first compound 0.6325 µM), 0.462; with Sunitinib + Dasatinib (first compound 2 µM) it was 0.527; with Sunitinib + Vorinostat (first compound 0.02 µM), 0.514; with Sunitinib + Vorinostat (first compound 0.06325 µM), 0.736; with Sunitinib + Vorinostat (first compound 0.2 µM), 0.591. Moreover, the relative viability was 0.5 in the test with Sunitinib + Vorinostat (first compound 0.6325 µM) and 0.514 in the test with Sunitinib + Vorinostat (first compound 2 µM).
With NCI-H2009, the relative viability with Sunitinib + Navitoclax (first compound 0.02 µM) was 1.18; in the test with Sunitinib + Navitoclax (first compound 0.06325 µM), 1.19; with Sunitinib + Navitoclax (first compound 0.2 µM), 1.26; with Sunitinib + Navitoclax (first compound 0.6325 µM) it was 1.16; with Sunitinib + Navitoclax (first compound 2 µM), 1.26; with Sunitinib + Crizotinib (first compound 0.02 µM) it was 1.01. Besides, the relative viability in the test with Sunitinib + Crizotinib (first compound 0.06325 µM) came out at 1.03; in the test with Sunitinib + Crizotinib (first compound 0.2 µM), 1.16; with Sunitinib + Crizotinib (first compound 0.6325 µM) it was 1.13; with Sunitinib + Crizotinib (first compound 2 µM), 1.04; in the test with Sunitinib + Dasatinib (first compound 0.02 µM) it was 0.291; with Sunitinib + Dasatinib (first compound 0.06325 µM), 0.379. Further, the relative viability with Sunitinib + Dasatinib (first compound 0.2 µM) was 0.288; in the test with Sunitinib + Dasatinib (first compound 0.6325 µM) it was 0.393; with Sunitinib + Dasatinib (first compound 2 µM) it was 0.309; with Sunitinib + Vorinostat (first compound 0.02 µM) it was 0.725; with Sunitinib + Vorinostat (first compound 0.06325 µM), 0.765; with Sunitinib + Vorinostat (first compound 0.2 µM), 0.828. Moreover, the relative viability came to 0.746 with Sunitinib + Vorinostat (first compound 0.6325 µM) and 0.723 in the test with Sunitinib + Vorinostat (first compound 2 µM).
As to NCI-H838, the relative viability was determined as 1.1 in the test with Sunitinib + Navitoclax (first compound 0.02 µM); 1.23 in the test with Sunitinib + Navitoclax (first compound 0.06325 µM); 1.28 with Sunitinib + Navitoclax (first compound 0.2 µM); 1.13 in the test with Sunitinib + Navitoclax (first compound 0.6325 µM); 0.91 in the test with Sunitinib + Navitoclax (first compound 2 µM); 0.768 with Sunitinib + Crizotinib (first compound 0.02 µM). In addition, the relative viability with Sunitinib + Crizotinib (first compound 0.06325 µM) was 0.863; with Sunitinib + Crizotinib (first compound 0.2 µM) it was 0.916; with Sunitinib + Crizotinib (first compound 0.6325 µM), 0.884; with Sunitinib + Crizotinib (first compound 2 µM), 0.64; with Sunitinib + Dasatinib (first compound 0.02 µM) it was 0.324; with Sunitinib + Dasatinib (first compound 0.06325 µM), 0.293. Besides, the relative viability with Sunitinib + Dasatinib (first compound 0.2 µM) amounted to 0.322; with Sunitinib + Dasatinib (first compound 0.6325 µM) it was 0.291; in the test with Sunitinib + Dasatinib (first compound 2 µM) it was 0.285; in the test with Sunitinib + Vorinostat (first compound 0.02 µM), 0.715; with Sunitinib + Vorinostat (first compound 0.06325 µM), 0.803; in the test with Sunitinib + Vorinostat (first compound 0.2 µM), 0.758. The relative viability in the test with Sunitinib + Vorinostat (first compound 0.6325 µM) turned out to be 0.725; with Sunitinib + Vorinostat (first compound 2 µM) it was 0.65.
Turning to LC-2-ad, the relative viability worked out at 0.381 with Sunitinib + Navitoclax (first compound 0.02 µM); 0.495 in the test with Sunitinib + Navitoclax (first compound 0.06325 µM); 0.714 in the test with Sunitinib + Navitoclax (first compound 0.2 µM); 0.406 in the test with Sunitinib + Navitoclax (first compound 0.6325 µM); 0.355 in the test with Sunitinib + Navitoclax (first compound 2 µM); 0.446 with Sunitinib + Crizotinib (first compound 0.02 µM). For the same cell line, the relative viability with Sunitinib + Crizotinib (first compound 0.06325 µM) came out at 0.554; with Sunitinib + Crizotinib (first compound 0.2 µM) it was 0.452; with Sunitinib + Crizotinib (first compound 0.6325 µM), 0.521; with Sunitinib + Crizotinib (first compound 2 µM) it was 0.534; with Sunitinib + Dasatinib (first compound 0.02 µM), 0.621; with Sunitinib + Dasatinib (first compound 0.06325 µM), 0.599. Further, the relative viability came out at 0.872 with Sunitinib + Dasatinib (first compound 0.2 µM); 0.558 with Sunitinib + Dasatinib (first compound 0.6325 µM); 0.403 with Sunitinib + Dasatinib (first compound 2 µM); 0.673 with Sunitinib + Vorinostat (first compound 0.02 µM); 0.767 with Sunitinib + Vorinostat (first compound 0.06325 µM); 0.774 with Sunitinib + Vorinostat (first compound 0.2 µM). Besides, the relative viability in the test with Sunitinib + Vorinostat (first compound 0.6325 µM) is 0.799; with Sunitinib + Vorinostat (first compound 2 µM), 0.698.
In the case of NCI-H2087, the relative viability with Sunitinib + Navitoclax (first compound 0.02 µM) was 0.976; with Sunitinib + Navitoclax (first compound 0.06325 µM) it was 0.99; with Sunitinib + Navitoclax (first compound 0.2 µM) it was 1.14; with Sunitinib + Navitoclax (first compound 0.6325 µM), 1.01; with Sunitinib + Navitoclax (first compound 2 µM) it was 0.969; in the test with Sunitinib + Crizotinib (first compound 0.02 µM), 0.909. Also, the relative viability came to 1.09 with Sunitinib + Crizotinib (first compound 0.06325 µM); 1.15 with Sunitinib + Crizotinib (first compound 0.2 µM); 0.967 with Sunitinib + Crizotinib (first compound 0.6325 µM); 0.791 in the test with Sunitinib + Crizotinib (first compound 2 µM); 0.717 with Sunitinib + Dasatinib (first compound 0.02 µM); 1.25 with Sunitinib + Dasatinib (first compound 0.06325 µM). Besides, the relative viability in the test with Sunitinib + Dasatinib (first compound 0.2 µM) was 1; with Sunitinib + Dasatinib (first compound 0.6325 µM), 0.945; with Sunitinib + Dasatinib (first compound 2 µM), 0.669; with Sunitinib + Vorinostat (first compound 0.02 µM), 0.748; in the test with Sunitinib + Vorinostat (first compound 0.06325 µM), 0.664; in the test with Sunitinib + Vorinostat (first compound 0.2 µM), 0.667. Moreover, the relative viability with Sunitinib + Vorinostat (first compound 0.6325 µM) was found to be 0.715; in the test with Sunitinib + Vorinostat (first compound 2 µM), 0.712.
Take NCI-H2347: the relative viability with Sunitinib + Navitoclax (first compound 0.02 µM) was 0.888; with Sunitinib + Navitoclax (first compound 0.06325 µM), 0.825; in the test with Sunitinib + Navitoclax (first compound 0.2 µM) it was 0.836; with Sunitinib + Navitoclax (first compound 0.6325 µM), 0.817; with Sunitinib + Navitoclax (first compound 2 µM), 0.818; in the test with Sunitinib + Crizotinib (first compound 0.02 µM), 0.665. The relative viability was determined as 0.795 with Sunitinib + Crizotinib (first compound 0.06325 µM); 0.731 with Sunitinib + Crizotinib (first compound 0.6325 µM); 0.822 in the test with Sunitinib + Crizotinib (first compound 2 µM); 0.255 with Sunitinib + Dasatinib (first compound 0.02 µM); 0.292 with Sunitinib + Dasatinib (first compound 0.06325 µM); 0.302 with Sunitinib + Dasatinib (first compound 0.2 µM). Also, the relative viability with Sunitinib + Dasatinib (first compound 0.6325 µM) is 0.257; with Sunitinib + Dasatinib (first compound 2 µM), 0.394; with Sunitinib + Vorinostat (first compound 0.02 µM), 0.648; in the test with Sunitinib + Vorinostat (first compound 0.06325 µM), 0.653; with Sunitinib + Vorinostat (first compound 0.2 µM), 0.723; with Sunitinib + Vorinostat (first compound 0.6325 µM), 0.554. Further, the relative viability in the test with Sunitinib + Vorinostat (first compound 2 µM) turned out to be 0.757.
